Tests used:
Format in all cases: cell-based
[1] = tested on: MCF-7 cells; experiment: Inhibition of proliferation of MCF-7 cells (ATP method, Cell Titer-Glo); conditions: for IC50: Homo sapiens, MCF7, MCF-7 cells, 72 h; for inhibitory effects on the proliferation of MCF-7 cells (in words): conclusion
Protocol: This experiment was intended to test the inhibitory effects of the compounds disclosed herein on the proliferation of MCF-7 Cells by using the ATP method, and to evaluate the in vitro activity of the compounds according to the IC50 values.
MCF-7 cells (TCHu74, National Collection of Authenticated Cell Cultures) were seeded into a 96-well plate with an MEM (hyclone, SH30024.01B) medium containing 10% FBS (Gibco, 10099-141), 1% sodium pyruvate (sigma, 58636) and 1% non-essential amino acid (sigma, M7145) at a density of 4,000 cells/well and cultured at 37° C. with 5% CO2. 20 mM stock solutions of the compounds are prepared, serially diluted with 100% DMSO to a final concentration of 1000×, and then diluted 20-fold with a medium containing 2% FBS. After the cells were cultured for 24 h, the medium was removed. 90 μL of the medium containing 2% FBS and 10 μL of a drug were added to each well, and 10 μL of DMSO was added to the control group. The mixtures were well mixed by gentle shaking. The blank group contained only 100 μL of the medium containing 2% FBS. The cells were cultured in an incubator at 37° C. with 5% CO2 for 72 h, and then 50 μL of mixed Cell Titer-Glo (Promega, G7571) was added to each well. The mixtures were well mixed by shaking and let stand at room temperature for 10 min, and the chemiluminescence signal values were determined.
(§1) The chemiluminescence signal value was plotted against the compound concentration (in log form) using Graphpad Prism, and the IC50 values of the compounds were obtained.

[2] = target: ERα (Homo sapiens (Human), UniProt P03372); experiment: Degradation of ERα in MCF-7 cells (ELISA); conditions: for DC50: MCF-7 cells, 16 to 18 h, read-out: EC50 (nM), degradation of ERα; for degradation of ERα (in words): conclusion
Protocol: ERα-positive breast cancer cell line MCF-7 cells were cultured in a DMEM/F12 medium (HyClone, SH30023.01) containing 10% fetal bovine serum (Corning, 35-010-CV). […] The following day the compounds were serially diluted with DMSO and further diluted with the phenol red-free DMEM/F12 medium containing 5% charcoal-stripped fetal bovine serum. 20 μL of a diluted compound was added to each well of the 48-well plate at final concentrations of 3000, 300, 30, 3, 0.3, 0.03 and 0.003 nM. The 48-well plate was placed in the incubator for 16 to 18 h. A 96-well plate was coated with the capture antibody from the human ERα/NR3A1 total protein assay kit (R&D, DYC5715-5). […] The plate was placed in an incubator at 26° C. overnight. On day 3, the antibody-coated 96-well plate was washed once with PBS, and 200 μL of PBS containing 1% BSA was added to each well. The plate was incubated in an incubator at 37° C. for 1.5 h to be blocked. The cell culture medium supernatant was discarded. The cells were washed once with PBS, and 60 μL of a cell lysis buffer was added to each well. […] The cells were lysed on ice for 15 min, and 300 μL of PBS containing 1 mM EDTA and 0.5% TritonX-100 was added to each well to dilute the urea to 1 M. The blocking buffer in the blocked 96-well plate was discarded, and 100 μL of diluted cell lysis buffer was added to each well. The plate was incubated in an incubator at 37° C. for 2 h and washed 5 times with PBS. A biotinylated assay antibody was diluted to 0.4 μg/mL with PBS containing 1% BSA, and then 100 μL of the assay antibody was added to each well. The plate was incubated in an incubator at 37° C. for 1 h. The plate was then washed five more times, and 100 μL of avidin-HRP diluted 200-fold with PBS containing 1% BSA was added to each well. The plate was incubated at 37° C. for 30 min. The plate was washed five more times, and 100 μL of TMB substrate was added to each well. The plate was incubated at room temperature until blue color appeared, and 100 μL of stop solution was added to each well. OD450 signal values were read using a PHERAstar multi-mode microplate reader. The IC50 values for the inhibitory activity of the compounds were calculated using Graphpad Prism software.

[3] = target: ER (estrogen receptor) (Homo sapiens (Human), UniProt P03372); experiment: Inhibition of binding of E to ER (MCF-7/ERE-luciferase reporter cells); conditions: MCF-7/ERE-luciferase cells, 0.1 nM estradiol, 24 h
Protocol: The compounds of the present disclosure can inhibit the binding of E (estrogen) to ER (estrogen receptor), thereby blocking the binding of the complex of E and ER to ERE (estrogen response element), and consequently the expression of downstream luciferase proteins. The inhibitory effects of the compounds of the present disclosure on the binding of E to ER was tested by using the following method.
An ERE was cloned upstream of the luciferase gene, and MCF-7/ERE-luciferase monoclonal cells were selected by transfection of MCF-7 (TCHu74, National Collection of Authenticated Cell Cultures). The MCF-7/ERE-luciferase cells were seeded into a 96-well plate with an MEM (hyclone, SH30024.01B) medium containing 10% charcoal stripped FBS (Moregate, FBSF), 1% sodium pyruvate (sigma, S8636), 1% non-essential amino acids (sigma, M7145) and 500 μg/mL G418 at a density of 30,000 cells/well and cultured at 37° C. with 5% CO2. 20 mM stock solutions of the drugs are prepared, serially diluted 10-fold with 100% DMSO, and then diluted 20-fold with the medium. After the cells were cultured for 24 h, the medium was removed. 0.1 nM estradiol (sigma, E2758) and 10 μL of a medium-diluted drug were added to each well, and DMSO was added to the control group. The mixtures were well mixed by gentle shaking. The cells were cultured in an incubator at 37° C. with 5% CO2 for 24 h, and then the cell culture liquid was removed, followed by the addition of 50 μL of a luciferase substrate (Promega, E6110) to each well. The plate was let stand at room temperature in the dark for 10-15 min, and the chemiluminescence signal values were determined.
as §1, with “The inhibitory effects of the compounds of the present disclosure on the binding of E to ER were tested through the above experiment. The” for “The”

Sequence of ERα (P03372 whole entry): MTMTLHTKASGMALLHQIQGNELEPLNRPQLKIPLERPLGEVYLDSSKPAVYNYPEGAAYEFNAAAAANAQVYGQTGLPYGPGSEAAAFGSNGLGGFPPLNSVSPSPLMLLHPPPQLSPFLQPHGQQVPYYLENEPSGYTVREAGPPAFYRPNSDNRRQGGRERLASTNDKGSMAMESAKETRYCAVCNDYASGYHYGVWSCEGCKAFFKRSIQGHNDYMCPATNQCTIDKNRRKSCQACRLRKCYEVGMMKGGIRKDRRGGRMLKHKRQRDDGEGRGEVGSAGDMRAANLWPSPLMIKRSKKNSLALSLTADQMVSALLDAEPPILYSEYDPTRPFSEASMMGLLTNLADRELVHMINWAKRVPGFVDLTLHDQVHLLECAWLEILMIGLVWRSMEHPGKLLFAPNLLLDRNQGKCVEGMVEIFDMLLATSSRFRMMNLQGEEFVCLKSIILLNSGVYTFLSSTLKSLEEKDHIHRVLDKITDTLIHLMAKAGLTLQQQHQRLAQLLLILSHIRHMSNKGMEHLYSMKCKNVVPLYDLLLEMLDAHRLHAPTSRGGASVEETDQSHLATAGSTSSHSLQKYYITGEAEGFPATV
Sequence of ER (estrogen receptor) (P03372 whole entry): as above

| Structure (SMILES) | IC50 [1] [nM] | inhibitory effects on the proliferation of MCF-7 cells (in words) [1] | DC50 [2] [nM] | degradation of ERα (in words) [2] | IC50 [3] [nM] |
| --- | --- | --- | --- | --- | --- |
| C[C@@H]1Cc2ccc3c(c2[C@@H](c2ccc(NC4CN(CCCF)C4)cn2)N1CC(F)(F)CO)C(=O)NC3=O [Example 20, (7R,9S)-8-(2,2-difluoro-3-hydroxypropyl)-9-(5-((1-(3-fluoropropyl)azetidin-3-yl)amino)pyridin-2-yl)-7-methyl-6,7,8,9-tetrahydro-1H-pyrrolo[3,4-h]isoquinoline-1,3(2H)-dione, reference compound] | > 10000 | no activity | > 10000 | no activity | – |
| C[C@@H]1Cc2cc3c(cc2[C@@H](c2ccc(NC4CN(CCCF)C4)cc2)N1CC(F)(F)F)OCO3 [Example 16, 1-(3-Fluoropropyl)-N-(4-((5R,7R)-7-methyl-6-(2,2,2-trifluoroethyl)-5,6,7,8-tetrahydro-[1,3]dioxolo[4,5-g]isoquinolin-5-yl)phenyl)azetidin-3-amine] | – | – | – | – | 0.27 |
| C[C@@H]1Cc2ccc3c(=O)[nH][nH]c(=O)c3c2[C@@H](c2ccc(NC3CN(CCCF)C3)cn2)N1CC(F)(F)CO [Example 21, reference compound] | > 10000 | no activity | > 10000 | no activity | – |

— patent US12428428B2, “Tricyclic tetrahydroisoquinoline derivative, preparation method therefor and application thereof in medicine” (JIANGSU HENGRUI MEDICINE CO., LTD., priority 2020, dated 2025)
